For 25 compounds, IC50 results are on record in patent US10822337B2, “TGF-β inhibitorC” (Rigel Pharmaceuticals, Inc., priority 2015, dated 2020).

pIC50: −log10 of the molar value.

For assay [1], the system named is GDF8 signaling (GDF pSMAD, MPC11). The assay can be described thus: AlphaScreen SureFire SMAD3 (p-Ser423/425) assay, inhibition of GDF8 signaling. The assay is classed as cell-based. The note with it: Mus musculus, MPC-11, p-SMAD-3 (Ser423/425) in cell lysate after GDF8 stimulation. An excerpt: (§1) Example 2: AlphaScreen® SureFire® SMAD3 (p-Ser423/425) Assay
(§2) The p-SMAD-3 (Ser423/425) SureFire® assay has been designed to measure the phosphorylation of endogenous cellular p-SMAD-3 (Ser423/425) in cell lysates and is a system for the screening of both modulators of receptor activation (e.g. agonists and antagonists) as well as agents acting intracellularly, such as small molecule inhibitors of upstream events. The assay will measure p-SMAD-3 (Ser423/425) activation by either cloned or endogenous receptors, and can be applied to primary cells.
(§3) 1× Lysis buffer: 1 ml of 5× Lysis buffer was diluted with 4 ml of sterile water. After dilution, excess 1× Lysis buffer can be frozen and thawed up to 5 times without loss in activity.
(§4) P-SMAD-3 (Ser423/425) SureFire® Assay Protocols
(§5) Step A: Preparation of Buffers
(§6) Activation buffer: The buffer was warmed slowly to 37° C. and gently mixed to re-suspend. Activation buffer can be stored at room temperature with no loss in activity.
(§7) Reaction buffer: The buffer was kept at 4° C. while in use.
(§8) AlphaScreen® Protein A IgG Kit: The kit was stored at 4° C. in the dark.
(§9) Reaction buffer+Activation buffer+AlphaScreen® Acceptor beads: Reaction buffer (40 parts), Activation Buffer (10 parts) and Acceptor beads (1 part) were mixed and the mixture was stored at room temperature and used the same day. Mixture was added to 384-well plates; excess mixturewas discarded.
(§10) Dilution buffer+AlphaScreen® Donor beads: Dilution buffer (20 parts) and Donor beads (1 part) were mixed and the mixture was stored at room temperature and used the same day. Excess mixture was discarded.
(§11) Assay control samples: After reconstitution in 250 μl of water, lysates were at −20° C. in single use aliquots.
(§12) Step B: Preparation of Samples and Cells
(§13) 96-well Assay Protocol for 293FT and RMS13 adherent cells can be carried out manually or in high throughput with liquid handling robots.
(§14) The cells (80 μL of cells for 96 well plates) were plated in collagen coated tissue culture plates in RPMI or FreeStyle medium (Invitrogen) and incubated overnight. For manual analysis, 6 plates for GDF8, 6 plates for TGFβ, and optionally 6 plates for Alk5ca(ALKS constitutively active) were used.
(§15) The compound dilution plates were prepared as follows: 12 μL of DMSO was transferred into first column of 96-well plate, and 16 μL of DMSO was transferred into columns 2-12 of the 96-well plate. 12 μL of compound solution was transferred into first column of the DMSO-containing 96-well plate. Three-fold dilution was performed up to column 10 of the DMSO-containing 96-well plate.
(§16) Step C: Treatment and Analysis
(§17) The plate containing cells were treated with compounds for about 10 minutes, and then ligand was added. GDF8 or TGFb was added to plates to stimulate. 293FL cells were stimulatedfor 90 minutes at 37° C.; and RMS13 cells were stimulated for 60 minutes at 37° C. The medium was then removed from the cells, and 1× Lysis Buffer (about 25 μL) was added and the plate was gently agitated on plate shaker for 5-10 minutes.
(§18) The lysate (5 μL) was then placed into 384-well shallow plates avoiding the generation of bubbles. To this, the Reaction Buffer+Activation Buffer+AlphaScreen® Acceptor beadsmixture (5 μL) was added. The plate was sealed with adhesive cover and shielded from light (e.g., with metal foil), and agitated gently on plate shaker for 2 hours at room temperature.
(§19) Dilution buffer+AlphaScreen® Donor beads (2 μL) was then added, and the plate was intubated on the plate shaker for an additional 1½ hours. After completion, the plate was read on Synergy-4 or Enspire plate reader, using AlphaScreen® pSMAD3® settings.
(§20) Representative results for inhibition of GDF8 (data=GDF pSMAD (MPC11) (μM)) and TGF-β (data=TGF-β pSMAD (MPC-11) (μM)) signaling are shown in Table 1: […]
Background: Alpha assays give light when donor and acceptor beads are brought close together.

Assay [2] has as its system TGF-β signaling (TGF-β pSMAD, MPC-11). The assay can be described thus: AlphaScreen SureFire SMAD3 (p-Ser423/425) assay, inhibition of TGF-β signaling. Format: cell-based. The following applies: Mus musculus, p-SMAD-3 (Ser423/425) in cell lysate after TGF-β stimulation.
From the text: as §1, §2, §3, §4, §5, §6, §7, §8, §9, §10, §11, §12, §13, §14, §15, §16, §17, §18, §19, §20

The pIC50 is the IC50 on a negative log10 scale, so that one unit is a factor of ten. Turning to `Fc1ccc(-c2nn3c(c2-c2ccc4ncnn4c2)CCC3)cc1OC(F)(F)F` [Compound 154, 6-(2-(4-Fluoro-3-trifluoromethoxyphenyl)-5,6-dihydro-4H-pyrrolo[1,2-b]pyrazol-3-yl)-[1,2,4]triazolo[1,5-a]pyridine], the pIC50 in assay [1] is 6.35; in assay [2] it was 6.08.

In the case of `Fc1cc(F)c(-c2nn3c(c2-c2ccc4ncccc4c2)CCC3)cc1F` [Compound 117, 6-(2-(2,4,5-Trifluorophenyl)-5,6-dihydro-4H-pyrrolo[1,2-b]pyrazol-3-yl)quinoline], the pIC50 in assay [1] is 6.81; in assay [2], 5.83.

With `Fc1cc(F)c(-c2nn3c(c2-c2ccc4ncsc4c2)CCC3)cc1F` [Compound 116, 6-(2-(2,4,5-Trifluorophenyl)-5,6-dihydro-4H-pyrrolo[1,2-b]pyrazol-3-yl)benzo[d]thiazole], the pIC50 in assay [1] is 7.56; in assay [2], 6.73.

As for `Fc1ccc(F)c(-c2nn3c(c2-c2ccc4nccn4c2)CCC3)c1` [Compound 194, 6-(2-(2,5-Difluorophenyl)-5,6-dihydro-4H-pyrrolo[1,2-b]pyrazol-3-yl)imidazo[1,2-a]pyridine], the pIC50 was 6.75 in assay [1] and 6.04 in assay [2].

For `Fc1ccc(-c2nn3c(c2-c2ccc4ncsc4c2)OCC3)cc1` [Compound 68, 7-(Benzo[d]thiazol-6-yl)-6-(4-fluorophenyl)-2,3-dihydropyrazolo[5,1-b]oxazole], the pIC50 in assay [1] was 6.48; in assay [2] it was 5.96.

Turning to `FC(F)(F)c1cccc(-c2nn3c(c2-c2ccc4nccnc4c2)OCC3)c1` [Compound 64, 7-(Quinoxalin-6-yl)-6-(3-trifluoromethylphenyl)-2,3-dihydropyrazolo[5,1-b]oxazole], the figures for the pIC50 in assay [1] and in assay [2] were 6.47 and 5.83, respectively.

As for `Cc1c(F)ccc(-c2nn3c(c2-c2ccc4cn[nH]c4c2)CCC3)c1F` [Compound 168, 6-(2-(2,4-Difluoro-3-methylphenyl)-5,6-dihydro-4H-pyrrolo[1,2-b]pyrazol-3-yl)-1H-indazole], the pIC50 was 6.38 in assay [1] and 6.10 in assay [2].

With `Cn1cnc2ccc(-c3c(-c4cccc(F)c4)nn4c3CCC4)cc21` [Compound 79, 6-(2-(3-Fluorophenyl)-5,6-dihydro-4H-pyrrolo[1,2-b]pyrazol-3-yl)-1-methyl-1H-benzo[d]imidazole], the results for the pIC50 in assay [1] and in assay [2] were 6.71 and 6.38, respectively.

With `Fc1cc(F)c(-c2nn3c(c2-c2ccc4[nH]ncc4c2)CCC3)cc1F` [Compound 112, 5-(2-(2,4,5-Trifluorophenyl)-5,6-dihydro-4H-pyrrolo[1,2-b]pyrazol-3-yl)-1H-indazole], the negative logarithm of the IC50 (pIC50) in assay [1] is 6.86; in assay [2], 6.09.

Regarding `Fc1ccc(-c2nn3c(c2-c2ccc4cn[nH]c4c2)CCC3)cc1Cl` [Compound 143, 6-(2-(3-Chloro-4-fluorophenyl)-5,6-dihydro-4H-pyrrolo[1,2-b]pyrazol-3-yl)-1H-indazole], the pIC50 in assay [1] is 6.66; in assay [2], 6.29.

For `Fc1ccc(-c2nn3c(c2-c2ccc4nccnc4c2)CCC3)cc1OC(F)(F)F` [Compound 153, 6-(2-(4-Fluoro-3-trifluoromethoxyphenyl)-5,6-dihydro-4H-pyrrolo[1,2-b]pyrazol-3-yl)quinoxaline], the values for the pIC50 in assay [1] and in assay [2] were 6.26 and 5.75, respectively.

Turning to `COc1cccc(-c2nn3c(c2-c2ccc4nccn4c2)OCC3)c1` [Compound 73, 7-(Imidazo[1,2-a]pyridin-6-yl)-6-(3-methoxyphenyl)-2,3-dihydropyrazolo[5,1-b]oxazole], the pIC50 in assay [1] was 6.48; in assay [2], 5.83.

With `Cn1cnc2ccc(-c3c(-c4ccc(F)cc4F)nn4c3CCC4)cc21` [Compound 93, 6-(2-(2,4-Difluorophenyl)-5,6-dihydro-4H-pyrrolo[1,2-b]pyrazol-3-yl)-1-methyl-1H-benzo[d]imidazole], the pIC50 in assay [1] was 7.11; in assay [2] it was 6.50.

Consider `Fc1cc(F)c(-c2nn3c(c2-c2ccc4nccn4c2)CCC3)cc1Cl` [Compound 188, 6-(2-(5-Chloro-2,4-difluorophenyl)-5,6-dihydro-4H-pyrrolo[1,2-b]pyrazol-3-yl)imidazo[1,2-a]pyridine], for which the negative logarithm of the IC50 (pIC50) was 7.20 in assay [1] and 7.09 in assay [2].

With `Fc1ccc(-c2nn3c(c2-c2ccc4[nH]ncc4c2)CCC3)c(F)c1` [Compound 91, 5-(2-(2,4-Difluorophenyl)-5,6-dihydro-4H-pyrrolo[1,2-b]pyrazol-3-yl)-1H-indazole], the figures for the negative-log IC50 (pIC50) in assay [1] and in assay [2] were 6.58 and 6.08, respectively.

Consider `Fc1ccc(-c2nn3c(c2-c2ccc4ncsc4c2)CCC3)cc1F` [Compound 87, 6-(2-(3,4-Difluorophenyl)-5,6-dihydro-4H-pyrrolo[1,2-b]pyrazol-3-yl)benzo[d]thiazole], for which the pIC50 is 6.44 in assay [1] and 5.99 in assay [2].

On to `FC(F)(F)c1cccc(-c2nn3c(c2-c2ccc4nccn4c2)OCC3)c1` [Compound 61, 7-(Imidazo[1,2-a]pyridin-6-yl)-6-(3-trifluoromethylphenyl)-2,3-dihydropyrazolo[5,1-b]oxazole], for which the values for the pIC50 in assay [1] and in assay [2] were 6.89 and 6.34, respectively.

On to `Clc1cccc(-c2nn3c(c2-c2ccc4nccnc4c2)CCC3)c1` [Compound 57, 6-(2-(3-Chlorophenyl)-5,6-dihydro-4H-pyrrolo[1,2-b]pyrazol-3-yl)quinoxaline], for which the pIC50 in assay [1] is 7.14; in assay [2], 6.40.

On to `Fc1ccc(-c2nn3c(c2-c2ccc4nccn4c2)CCC3)cc1OC(F)(F)F` [Compound 151, 6-(2-(4-Fluoro-3-trifluoromethoxyphenyl)-5,6-dihydro-4H-pyrrolo[1,2-b]pyrazol-3-yl)imidazo[1,2-a]pyridine], for which the pIC50 in assay [1] is 6.41; in assay [2], 5.93.

In the case of `Fc1ccccc1-c1nn2c(c1-c1ccc3ncsc3c1)CCC2` [Compound 201, 6-(2-(2-fluorophenyl)-5,6-dihydro-4H-pyrrolo[1,2-b]pyrazol-3-yl)benzo[d]thiazole], the negative logarithm of the IC50 (pIC50) in assay [1] was 6.65; in assay [2], 5.84.

In the case of `FC(F)(F)Oc1cccc(-c2nn3c(c2-c2ccc4ncnn4c2)CCC3)c1` [Compound 127, 6-(2-(3-Trifluoromethoxyphenyl)-5,6-dihydro-4H-pyrrolo[1,2-b]pyrazol-3-yl)-[1,2,4]triazolo[1,5-a]pyridine], the pIC50 in assay [1] is 7.44; in assay [2], 7.15.

For `Fc1cc(F)c(-c2nn3c(c2-c2ccc4ncnn4c2)CCC3)cc1Cl` [Compound 192, 6-(2-(5-Chloro-2,4-difluorophenyl)-5,6-dihydro-4H-pyrrolo[1,2-b]pyrazol-3-yl)-[1,2,4]triazolo[1,5-a]pyridine], the pIC50 is 7.36 in assay [1] and 7.18 in assay [2].

As to `Fc1ccccc1-c1nn2c(c1-c1ccc3nccnc3c1)CCC2` [Compound 136, 6-(2-(2-Fluorophenyl)-5,6-dihydro-4H-pyrrolo[1,2-b]pyrazol-3-yl)quinoxaline], the pIC50 in assay [1] was 6.21; in assay [2], 5.63.

For `COc1cccc(-c2nn3c(c2-c2ccc4ncsc4c2)OCC3)c1` [Compound 74, 7-(Benzo[d]thiazol-6-yl)-6-(3-methoxyphenyl)-2,3-dihydropyrazolo[5,1-b]oxazole], the figures for the pIC50 in assay [1] and in assay [2] were 6.62 and 5.98, respectively.

For `Cc1cc(-c2nn3c(c2-c2ccc4ncnn4c2)CCC3)c(F)cc1F` [Compound 185, 6-(2-(2,4-Difluoro-5-methylphenyl)-5,6-dihydro-4H-pyrrolo[1,2-b]pyrazol-3-yl)-[1,2,4]triazolo[1,5-a]pyridine], the pIC50 in assay [1] is 7.41; in assay [2], 7.16.
